Values after ≈ are worked out from the molar mass of the structure shown.

The test system of one assay is S. aureus ATCC 25923. The assay is described as follows: microbe, parasite or virus in culture. The source says: (§1) Clinical S. aureus strains were collected from patients with atopic dermatitis during their visits to the Outpatient Clinic and hospitalization in the Department of Dermatology, Venereology and Allergology at Medical University of Gdańsk (following the approval from the ethics committee, Approval Number NKBBN/242–477/2014). Reference strains of S. aureus ATCC 25923, S. aureus ATCC 33591, S. aureus ATCC 9144, and S. aureus ATCC 12598 were obtained from the American Type Culture Collection. All the strains were stored at − 80 °C in Roti®-Store cryo vials (Carl Roth GmbH, Karlsruhe, Germany) and before the tests were transferred into fresh Mueller–Hinton Medium (BioMaxima, Lublin, Poland) and incubated for 24 h at 37 °C. Subsequently, each bacterial inoculum was seeded on Mueller–Hinton agar plates (BioMaxima) and incubated again for 24 h. The cultures prepared in this way were used in further antimicrobial assays. Minimum inhibitory concentrations (MICs) were determined according to the Clinical and Laboratory Standards Institute recommendations. […] The experiments were conducted on 96-well microtiter plates, with a final volume of 100 μL. Additionally, in the case of daptomycin, the medium was supplemented with Ca^2+ (50 mg/L). Cell densities were adjusted spectrophotometrically (Multiskan™ GO Microplate Spectrophotometer, Thermo Scientific) at 600 nm. The MICs were taken as the lowest drug concentration at which a visible growth of the microorganisms was inhibited. Minimum biofilm eliminating concentrations (MBECs) were determined on 96-well flat-bottomed microtiter polystyrene plates with resazurin (7-hydroxy-3H-phenoxazin-3-one 10-oxide sodium salt) as a cell viability reagent. To do this, the plates were filled with 100 μL of the initial inoculums of bacteria (0.5 × 10^7 CFU/mL) in the Mueller–Hinton broth and incubated for 24 h at 37 °C. […] After 24 h of incubation, 20 μL of resazurin (4 mg/mL) was added to each well and the MBEC values were read. Minimum biofilm inhibitory concentrations (MBICs) were also determined on 96-well flat-bottomed microtiter polystyrene plates as described previously. To do this, 50 μL of the compounds in the concentration range, diluted MHB, were prepared. Subsequently, the 50 μL of the staphylococcal inoculums were added to reach the same density of bacteria as that in the MBEC assay. After 24 h of incubation at 37 °C, the wells were rinsed three times with PBS and the fresh medium (100 μL) with resazurin (0.6 mg/mL) was added. Then, after 1 h of incubation, MBICs were read. […] All experiments were conducted in triplicate.
(§2) Formation of the biofilm inside the PDMS flow chambers was performed using three peristaltic pumps working simultaneously (LP-pump, Kamush, Lipopharm, Poland) and sterile Tygon® 3350 silicone hoses (2.4 × 0.8 × 0.8 mm) with a length of 30 and 50 cm for inlet and outlet, respectively. Bacterial suspensions were prepared (0.5 × 10^7 CFU/mL) in sterile 50-mL test tubes, which were placed in a heating block at 37 °C. Before experiments, all channels were assessed for tightness and sterilized using a 70% 2-propanol solution (10 min, flow rate 1 mL/min) and rinsed with sterile PBS solution (10 min, flow 0.1 mL/min). The formation of biofilm inside the channels was divided into three stages: (1) adhesion—at this stage S. aureus suspensions were passed through the channels for 4 h at a flow rate of 0.1 mL/min; (2) rinsing—the previously used hoses were replaced with new sterile ones, and the channels were rinsed with sterile PBS solution for 10 min at a flow rate of 0.1 mL/min; (3) biofilm growth—after flushing the channels, the silicone hoses were placed in tubes with MHB medium, which was passed through the channels for 24 h at a flow rate of 0.1 mL/min. All experiments included growth and sterility controls.
(§3) This assay was conducted also on the S. aureus ATCC 25923 and S. aureus 33,591 (MRSA) strains.

For assay [1], the system named is S. aureus ATCC 33591 (MRSA). Put plainly: microbe, parasite or virus in culture.
From the text: as §1, §2, §3

The subject of assay [2] is S. aureus clinical strain 004N (MRSA). More on the design: method as in earlier work. The settings on record: clinical isolate 004N (MRSA), nasal swab; cited from earlier work.
Assay [3] relates to S. aureus clinical strain 005S. More on the design: method as in earlier work. The settings on record: clinical isolate 005S, skin; cited from earlier work.
Assay [4] concerns S. aureus clinical strain 009S. More on the design: method as in earlier work. The settings on record: clinical isolate 009S, skin; cited from earlier work.
Assay [5] deals with S. aureus clinical strain 015N (MRSA). Further details: method as in earlier work. The settings on record: clinical isolate 015N (MRSA), nasal swab; cited from earlier work.
Assay [6] concerns S. aureus clinical strain 030N. More on the design: method as in earlier work. The settings on record: clinical isolate 030N, nasal swab; cited from earlier work.
The test system of assay [7] is S. aureus clinical strain 031S. Further details: method as in earlier work. The settings on record: clinical isolate 031S, skin; cited from earlier work.
For assay [8], the system named is S. aureus clinical strain 043SC (MRSA). More on the design: method as in earlier work. The settings on record: clinical isolate 043SC (MRSA), skin of patient with furuncle folliculitis; cited from earlier work.
The test system of assay [9] is S. aureus clinical strain 051N (MRSA). More on the design: method as in earlier work. The settings on record: clinical isolate 051N (MRSA), nasal swab; cited from earlier work.
Assay [10] concerns S. aureus clinical strain 060S. More on the design: method as in earlier work. The settings on record: clinical isolate 060S, skin; cited from earlier work.
The mark [11] stands for this setting: S. aureus 25923 biofilm treated under flow with Retro-Omiganan (half MBEC) for 24 h.
Where [12] appears, read: S. aureus 25923 biofilm treated under flow with Retro-Omiganan (half MBEC) for 48 h.
Where [13] appears, read: S. aureus 25923 biofilm treated under flow with Retro-Omiganan (half MBEC) for 72 h.
[14] abbreviates: Staphylococcus aureus, ATCC25923, 0 h.
Where [15] appears, read: Staphylococcus aureus, ATCC25923, 24 h.
The mark [16] stands for this setting: Staphylococcus aureus, ATCC25923, 48 h.
The mark [17] stands for this setting: Staphylococcus aureus, ATCC25923, 72 h.
Where [18] appears, read: S. aureus ATCC 33591 (MRSA) biofilm treated under flow with Retro-Omiganan (half MBEC) for 24 h.
The mark [19] stands for this setting: S. aureus ATCC 33591 (MRSA) biofilm treated under flow with Retro-Omiganan (half MBEC) for 48 h.
Setting [20] is: S. aureus ATCC 33591 (MRSA) biofilm treated under flow with Retro-Omiganan (half MBEC) for 72 h.

On to `CN(C)[C@@H]1C(O)=C(C(N)=O)C(=O)[C@@]2(O)C(O)=C3C(=O)c4c(O)cccc4[C@@](C)(O)[C@H]3C[C@@H]12` [Tetracycline], for which the MIC against S. aureus ATCC 25923 (Staphylococcus aureus, ATCC25923, 0 h, S. aureus 25923, time 0 h (baseline, before peptide exposure)) was ≤ 0.25 µg/mL; in the assay with S. aureus ATCC 25923 (Staphylococcus aureus, ATCC25923, 24 h, S. aureus 25923 biofilm treated under flow with Omiganan (half MBEC) for 24 h), ≤ 0.25 µg/mL; in the assay on S. aureus ATCC 25923 (Staphylococcus aureus, ATCC25923, 24 h, S. aureus 25923 biofilm treated under flow with Retro-Omiganan (half MBEC) for 24 h), ≤ 0.25 µg/mL; in the assay with S. aureus ATCC 25923 (Staphylococcus aureus, ATCC25923, 48 h, S. aureus 25923 biofilm treated under flow with Omiganan (half MBEC) for 48 h), ≤ 0.25 µg/mL; with S. aureus ATCC 25923 (Staphylococcus aureus, ATCC25923, 48 h, S. aureus 25923 biofilm treated under flow with Retro-Omiganan (half MBEC) for 48 h), ≤ 0.25 µg/mL; in the assay with S. aureus ATCC 25923 (Staphylococcus aureus, ATCC25923, 72 h, S. aureus 25923 biofilm treated under flow with Omiganan (half MBEC) for 72 h), ≤ 0.25 µg/mL. The MIC against S. aureus ATCC 25923 (Staphylococcus aureus, ATCC25923, 72 h, S. aureus 25923 biofilm treated under flow with Retro-Omiganan (half MBEC) for 72 h) was ≤ 0.25 µg/mL; in [1] (Staphylococcus aureus, ATCC33591|MRSA, 0 h, S. aureus ATCC 33591 (MRSA), time 0 h (baseline, before peptide exposure)), 64 µg/mL (≈ 144 µM); in assay [1] (Staphylococcus aureus, ATCC33591|MRSA, 24 h, S. aureus ATCC 33591 (MRSA) biofilm treated under flow with Omiganan (half MBEC) for 24 h), 64 µg/mL (≈ 144 µM); in assay [1] (Staphylococcus aureus, ATCC33591|MRSA, 24 h, S. aureus ATCC 33591 (MRSA) biofilm treated under flow with Retro-Omiganan (half MBEC) for 24 h) it was 64 µg/mL (≈ 144 µM); in [1] (Staphylococcus aureus, ATCC33591|MRSA, 48 h, S. aureus ATCC 33591 (MRSA) biofilm treated under flow with Omiganan (half MBEC) for 48 h) it was 64 µg/mL (≈ 144 µM); in assay [1] (Staphylococcus aureus, ATCC33591|MRSA, 48 h, S. aureus ATCC 33591 (MRSA) biofilm treated under flow with Retro-Omiganan (half MBEC) for 48 h), 64 µg/mL (≈ 144 µM). Moreover, the MIC is 64 µg/mL (≈ 144 µM) in [1] (Staphylococcus aureus, ATCC33591|MRSA, 72 h, S. aureus ATCC 33591 (MRSA) biofilm treated under flow with Omiganan (half MBEC) for 72 h) and 64 µg/mL (≈ 144 µM) in [1] (Staphylococcus aureus, ATCC33591|MRSA, 72 h, S. aureus ATCC 33591 (MRSA) biofilm treated under flow with Retro-Omiganan (half MBEC) for 72 h). Further, the “Antimicrobial susceptibility (MIC)” value was 0.5 µg/mL in assay [2]; 0.5 µg/mL in [3]; 1 µg/mL in assay [4]; 0.5 µg/mL in assay [5]; 0.5 µg/mL in assay [6]; 0.25 µg/mL in assay [7]. The “Antimicrobial susceptibility (MIC)” value in assay [8] was 32 µg/mL; in [9], 0.25 µg/mL; in [10] it was 0.125 µg/mL.

As for `CCC[C@@H]1C[C@@H](C(=O)N[C@@H]([C@H]2O[C@H](SC)[C@H](O)[C@@H](O)[C@H]2O)[C@@H](C)O)N(C)C1` [Lincomycin], the MIC was 1.0 µg/mL (≈ 2.46 µM) with S. aureus ATCC 25923 (setting [11]); 1.0 µg/mL (≈ 2.46 µM) against S. aureus ATCC 25923 (setting [12]); 1.0 µg/mL (≈ 2.46 µM) with S. aureus ATCC 25923 (setting [13]); 1 µg/mL (≈ 2.46 µM) in the assay on S. aureus ATCC 25923 (setting [14]); 1 µg/mL (≈ 2.46 µM) in the assay on S. aureus ATCC 25923 (setting [15]); 1 µg/mL (≈ 2.46 µM) in the assay with S. aureus ATCC 25923 (setting [16]). Moreover, the MIC against S. aureus ATCC 25923 (setting [17]) was 1 µg/mL (≈ 2.46 µM); in [1] (setting [18]) it was > 128 µg/mL; in assay [1] (setting [19]), > 128 µg/mL; in assay [1] (setting [20]) it was > 128 µg/mL; in assay [1] (Staphylococcus aureus, 0 h) it was > 128 µg/mL; in assay [1] (Staphylococcus aureus, 24 h) it was > 128 µg/mL. Moreover, the MIC was > 128 µg/mL in assay [1] (Staphylococcus aureus, 48 h) and > 128 µg/mL in assay [1] (Staphylococcus aureus, 72 h). Besides, the “Antimicrobial susceptibility (MIC)” value in [2] is on record as 1 µg/mL; in assay [3], 1 µg/mL; in assay [4], 0.25 µg/mL; in [5] it was 1 µg/mL; in assay [6] it was 0.5 µg/mL; in [7] it was 0.5 µg/mL. Moreover, the “Antimicrobial susceptibility (MIC)” value in assay [8] is > 512 µg/mL; in [9], 1 µg/mL; in assay [10] it was 0.5 µg/mL.

For the compound `CC[C@H]1OC(=O)[C@H](C)[C@@H](O[C@H]2C[C@@](C)(OC)[C@@H](O)[C@H](C)O2)[C@H](C)[C@@H](O[C@@H]2O[C@H](C)C[C@H](N(C)C)[C@H]2O)[C@](C)(O)C[C@@H](C)C(=O)[C@H](C)[C@@H](O)[C@]1(C)O` [Erythromycin], the MIC in the assay on S. aureus ATCC 25923 (setting [11]), against S. aureus ATCC 25923 (setting [12]), against S. aureus ATCC 25923 (setting [13]), against S. aureus ATCC 25923 (setting [14]), against S. aureus ATCC 25923 (setting [15]) and in the assay with S. aureus ATCC 25923 (setting [16]) was ≤ 0.25 µg/mL each time. In addition, the MIC in the assay on S. aureus ATCC 25923 (setting [17]) is ≤ 0.25 µg/mL. The entries for the “Antimicrobial susceptibility (MIC)” value in [5], in assay [6] and in [8] were 32 µg/mL, 0.25 µg/mL and > 512 µg/mL, respectively.

In the case of `CC1(C)S[C@@H]2[C@H](NC(=O)[C@H](N)c3ccccc3)C(=O)N2[C@H]1C(=O)O` [Ampicillin], the MIC in the assay with S. aureus ATCC 25923 (setting [11]), in the assay on S. aureus ATCC 25923 (setting [12]), against S. aureus ATCC 25923 (setting [13]), against S. aureus ATCC 25923 (setting [14]), against S. aureus ATCC 25923 (setting [15]) and in the assay with S. aureus ATCC 25923 (setting [16]) was 0.5 µg/mL (≈ 1.43 µM) each time. The MIC in the assay with S. aureus ATCC 25923 (setting [17]) was 0.5 µg/mL (≈ 1.43 µM); in assay [1] (setting [18]), > 128 µg/mL; in [1] (setting [19]), > 128 µg/mL; in assay [1] (setting [20]), > 128 µg/mL; in assay [1] (Staphylococcus aureus, 0 h) it was > 128 µg/mL; in [1] (Staphylococcus aureus, 24 h) it was > 128 µg/mL. For the same compound, the MIC in assay [1] (Staphylococcus aureus, 48 h) is > 128 µg/mL; in assay [1] (Staphylococcus aureus, 72 h), > 128 µg/mL. The “Antimicrobial susceptibility (MIC)” value in assay [2] is 0.5 µg/mL; in assay [3], 8 µg/mL; in [5], 16 µg/mL; in assay [6], 0.5 µg/mL; in assay [7], 0.5 µg/mL; in assay [8] it was 32 µg/mL. The “Antimicrobial susceptibility (MIC)” value in assay [9] and in assay [10] was 0.25 µg/mL in each case.
